Tests used:
[1] = molecular target: T1, Renilla luciferase (Renilla reniformis, UniProt P27652); assay: Substrate specificity and luminescence activity of Renilla luciferase; type: biochemical; details: measured for 10 seconds, coelenterazine = 100
T1 construct: made in house
T1 sequence (P27652 1-311): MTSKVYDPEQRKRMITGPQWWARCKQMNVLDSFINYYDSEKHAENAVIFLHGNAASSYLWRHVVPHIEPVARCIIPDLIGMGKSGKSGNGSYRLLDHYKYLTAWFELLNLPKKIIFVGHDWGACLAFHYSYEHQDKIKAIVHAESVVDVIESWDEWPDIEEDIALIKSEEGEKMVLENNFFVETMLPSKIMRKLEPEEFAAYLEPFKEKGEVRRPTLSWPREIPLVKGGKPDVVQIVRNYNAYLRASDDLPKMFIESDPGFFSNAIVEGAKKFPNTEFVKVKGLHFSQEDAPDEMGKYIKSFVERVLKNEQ
Experimental: Renilla luciferase was purified by the method described in Inouye, S. & Shimomura, O. Biochem. Biophys. Res. Commun. (1997) 233: 349-353, and used for assay.
(§1) After 1 μl of Renilla luciferase (0.45 mg/ml) was dissolved in 100 μl of 30 mM Tris-HCl (pH 7.6) containing 10 mM EDTA, 1 μl of a solution of coelenterazine or its analogue (1 μg/μl) in ethanol was added to the solution to start the luminescence reaction. The luminescence activity was measured for 10 seconds on a luminometer luminescencer-PSN AB2200 (manufactured by Atto Co., Ltd.). The luminescence activity was determined by repeating the measurement of luminescence activity described above 3 times and expressed in terms of the maximum luminescence intensity (Imax) of luminescence activity.

[2] = molecular target: T2, 19 kDa protein from Oplophorus luciferase (Oplophorus gracilirostris, UniProt Q9GV45); assay: Substrate specificity and luminescence activity of the 19 kDa protein from Oplophorus luciferase; type: biochemical; details: measured for 60 seconds, coelenterazine = 100
T2 construct: made in house
Experimental: The 19 kDa protein from Oplophorus luciferase was purified by the method described in Inouye, S. and Sasaki, S., Protein Express. Purif. (2007) 56: 261-268 and provided for use.
as §1, with “of the 19 kDa protein (2.3 mg/ml) from Oplophorus” for “of Renilla”, “luciferase containing 1 mM DTT” for “luciferase (0.45 mg/ml)”, “luminescence reaction, and the” for “luminescence reaction. The”, “for 60” for “for 10”, “measurement” for “measurement of luminescence activity”

[3] = tested on: Gaussia luciferase; assay: Substrate specificity and luminescence activity of Gaussia luciferase; type: biochemical; details: measured for 10 seconds, coelenterazine = 100
Experimental: Gaussia luciferase was purified by the method described in Japanese Patent Application KOKAI No. 2008-099669 and provided for use. After 1 μl of Gaussia luciferase (0.024 mg/ml) was dissolved in 100 μl of phosphate buffered saline (manufactured by Sigma Inc.) containing 0.01% Tween 20 (manufactured by Sigma Inc.) and 10 mM EDTA, 1 μl of a solution of coelenterazine or its analogue (1 μg/μl) in ethanol was mixed with the solution to start the luminescence reaction. The luminescence activity was measured for 10 seconds on a luminometer luminescencer-PSN AB2200 (manufactured by Atto Co., Ltd.). The luminescence activity was determined by repeating the measurement described above 3 times and expressed in terms of the maximum luminescence intensity (Imax) of luminescence activity.

[4] = molecular target: T3, apoaequorin (Aequorea victoria, UniProt P07164); assay: Fluorescence spectra of fluorescent proteins formed from semi-synthetic aequorins by Ca2+; type: physicochemical; details: fluorescent protein generated by calcium from semi-synthetic aequorin; excitation 330 nm, 25° C.
T3 construct: purchased Chisso Corporation
Experimental: The fluorescence spectra of novel fluorescent proteins formed by the Ca^2+-triggerd reaction from semi-synthetic aequorins in EXAMPLE 3 were measured at 25° C. in a quartz cell (10 mm light path length) using a Jasco FP-6500 spectrofluorometer (excitation wavelength: 330 nm, emission/excitation bandwidth: 3 nm; response: 0.5 sec, scan speed, 1000 nm/min). The fluorescence spectra measured were corrected.

[5] = molecular target: T3, apoaequorin; assay: Luminescence patterns of semi-synthetic aequorins, half decay time; type: biochemical; details: semi-synthetic aequorin; time in which luminescence becomes half of maximum; patterns measured for 60 seconds
Experimental: A solution of the regenerated semi-synthetic aequorin was diluted to 10-fold with 20 mM Tris-HCl (pH 7.6) containing 0.1% BSA (manufactured by Sigma, Inc.), 0.01 mM EDTA and 150 mM NaCl. The dilution was dispensed into a 96-well microplate (Nunc #236108) at 5 μl/well. The luminescence reaction was triggered by injecting 50 mM Tris-HCl (pH 7.6) containing 50 mM calcium chloride solution at 100 μl/well. The luminescence patterns for 60 seconds were measured to determine half decay time of the luminescence (a time period in which the luminescence becomes half of the maximum luminescence intensity).

[6] = molecular target: T3, apoaequorin; assay: Luminescence spectra of semi-synthetic aequorins; type: biochemical; details: semi-synthetic aequorin, calcium added, 22 to 25° C.
Experimental: In a quartz cell with light path length of 10 mm, 1 ml of 50 mM Tris-HCl (pH 7.6) containing 1 mM EDTA and 100 μl (100 μg protein) of a solution of the regenerated semi-synthetic aequorin were charged. Next, 100 μl of 50 mM Tris-HCl (pH 7.6) containing 0.1 ml of 10 mM calcium chloride solution was added thereto to start the luminescence reaction. The spectra were measured on a spectrofluorimeter (FP-6500, manufactured by Jasco Co., Ltd.) with the excitation light source turned off. The measurement conditions were bandwidth: 20 nm, response: 0.5 second, scan speed: 2000 nm/min and 22 to 25° C. The luminescence spectra measured were corrected.

[7] = molecular target: T3, apoaequorin; assay: Fluorescence spectra of semi-synthetic gFP (coelenteramide analogue + apoaequorin, EDTA); type: physicochemical; details: 10 mM EDTA buffer, excitation 337 nm
Experimental: Semi-synthetic gFP was prepared from recombinant apoaequorin and coelenteramide analogues as follows. In 1 ml of 50 mM Tris-HC 1 (pH 7.6) containing 10 mM EDTA and 1 mM DTT, apoaequorin (0.2 mg) was mixed with 8 μl of a coelenteramide analogue (1 μg/μl in anhydrous methanol). The mixture was allowed to stand 4° C. for 16 hours to prepare semi-synthetic gFP-like protein (hereinafter sometimes simply referred to as “semi-synthetic gFP”).
(§2) The fluorescence spectra were determined as follows. For coelenteramide analogue alone, the fluorescence was measured according to the procedures for semi-synthetic gFP and semi-synthetic BFP described in EXAMPLES 11 and 12, except for in the absence of apoaequorin, using 1 ml of 50 mM Tris-HCl (pH 7.6) containing 10 mM EDTA and 1 mM DTT or 1 ml of 50 mM Tris-HCl (pH 7.6) containing 10 mM CaCl2 and 1 mM DTT, in the final concentration of coelenteramide analogue adjusted to 8 μg/ml. The fluorescence spectra were measured at 25° C. in a quartz cell (10 mm light path length) using a Jasco FP-6500 spectrofluorometer (excitation wavelength: 337 nm, emission/excitation bandwidth: 3 nm; response: 0.5 sec, scan speed, 1000 nm/min).

[8] = Fluorescence spectra of coelenteramide analogue alone (absence of apoaequorin); type: physicochemical; details: analogue alone 8 μg/ml; for Coelenteramide (Buffer containing CaCl2) Fluorescence intensity (rlu) / Coelenteramide (Buffer containing CaCl2) Maximum fluorescence wavelength λmax (nm): 10 mM CaCl2 buffer pH 7.6, excitation 337 nm; for Coelenteramide (EDTA-containing buffer) Fluorescence intensity (rlu) / Coelenteramide (EDTA-containing buffer) Maximum fluorescence wavelength λmax (nm): 10 mM EDTA buffer pH 7.6, excitation 337 nm
Experimental: as §2

[9] = molecular target: T3, apoaequorin; assay: Fluorescence spectra of semi-synthetic BFP (coelenteramide analogue + apoaequorin, CaCl2); type: physicochemical; details: 10 mM CaCl2 buffer, excitation 337 nm
Experimental: Semi-synthetic gFP was prepared from recombinant apoaequorin and coelenteramide analogues as follows. In 1 ml of 50 mM Tris-HC 1 (pH 7.6) containing 10 mM CaCl2 and 1 mM DTT, apoaequorin (0.2 mg) was mixed with 8 μl of a coelenteramide analogue (1 μg/μl in anhydrous methanol). The mixture was allowed to stand at 4° C. for 16 hours to prepare semi-synthetic BFP-like protein (hereinafter sometimes simply referred to as “semi-synthetic BFP”).
as §2

T3 sequence (P07164 other isoform, or with tags, fused parts or gaps with the stated changes): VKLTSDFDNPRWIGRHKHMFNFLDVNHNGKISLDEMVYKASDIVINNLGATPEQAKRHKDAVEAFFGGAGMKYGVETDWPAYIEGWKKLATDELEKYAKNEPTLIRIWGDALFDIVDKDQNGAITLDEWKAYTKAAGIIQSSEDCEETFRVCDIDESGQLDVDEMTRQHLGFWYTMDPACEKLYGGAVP
T2 sequence (Q9GV45 28-196): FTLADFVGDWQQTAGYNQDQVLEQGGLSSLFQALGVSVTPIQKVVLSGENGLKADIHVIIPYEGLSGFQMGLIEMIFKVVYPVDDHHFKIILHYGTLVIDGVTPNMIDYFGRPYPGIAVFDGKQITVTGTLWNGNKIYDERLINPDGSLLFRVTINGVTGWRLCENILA

Compound | Luminescence activity Imax (%) [1] | Luminescence activity Imax (%) [2] | Luminescence activity Imax (%) [3] | Maximum fluorescence wavelength λmax (nm) [4] | Relative fluorescence intensity (rlu) [4] | Half decay time [5] | Maximum luminescence wavelength λmax (nm) [6] | Semi-synthetic gFP (EDTA-containing buffer) Fluorescence intensity (rlu) [7] | Semi-synthetic gFP (EDTA-containing buffer) Maximum fluorescence wavelength λmax (nm) [7] | Coelenteramide (Buffer containing CaCl2) Fluorescence intensity (rlu) [8] | Coelenteramide (Buffer containing CaCl2) Maximum fluorescence wavelength λmax (nm) [8] | Coelenteramide (EDTA-containing buffer) Fluorescence intensity (rlu) [8] | Coelenteramide (EDTA-containing buffer) Maximum fluorescence wavelength λmax (nm) [8] | Fluorescence intensity [9] | Semi-synthetic BFP (Buffer containing CaCl2) Maximum fluorescence wavelength λmax (nm) [9]
O=c1c(Cc2ccc(O)cc2)nc2c(-c3csc4ccccc34)[nH]c(-c3ccc(O)cc3)cn1-2 [Compound 3i, 8-(Benzo[b]thiophen-3-yl)-2-(4-hydroxybenzyl)-6-(4-hydroxyphenyl)imidazo[1,2-a]pyrazin-3(7H)-one] | 0.00% | 0.09% | 0.00% |  |  |  |  |  |  |  |  |  |  |  | 
O=c1c(Cc2ccc(O)cc2)nc2c(-c3ccsc3)[nH]c(-c3ccc(O)cc3)cn1-2 [Compound 3g, 2-(4-Hydroxybenzyl)-6-(4-hydroxyphenyl)-8-(thiophen-3-yl)imidazo[1,2-a]pyrazin-3(7H)-one] | 0.00% | 0.3% | 0.00% |  |  |  |  |  |  |  |  |  |  |  | 
Oc1ccc(Cc2nc3c(Cc4ccccc4)nc(-c4ccc(O)cc4)cn3c2O)cc1 [Coelenterazine] | 100.0% | 100.0% | 100.0% | 473.0 nm | 63.3 rlu | 0.81 s | 472.5 nm |  |  |  |  |  |  |  | 
O=C(Cc1ccc(O)cc1)Nc1ncc(-c2ccc(O)cc2)nc1-c1ccc([N+](=O)[O-])cc1 [Compound 4o, 2-(4-Hydroxyphenyl)-N-[5-(4-hydroxyphenyl)-3-(4-nitrophenyl)pyrazin-2-yl]acetamide] |  |  |  |  |  |  |  | 3.4 rlu | 485.0 nm | 2.1 rlu | 478.5 nm | 2.1 rlu | 482.5 nm | 3.9 rlu | 477.5 nm
O=C(Cc1ccc(O)cc1)Nc1ncc(-c2ccc(O)cc2)nc1-c1cccs1 [Compound 4f, 2-(4-Hydroxyphenyl)-N-[5-(4-hydroxyphenyl)-3-(thiophen-2-yl)pyrazin-2-yl]acetamide] |  |  |  |  |  |  |  | 70.5 rlu | 536.5 nm | 2.2 rlu | 447.0 nm | 2.3 rlu | 448.5 nm | 96.4 rlu | 527.0 nm

From patent US9056840B2, “Coelenterazine analogues and coelenteramide analogues” (JNC Corporation, priority 2010, dated 2015)
